Assay results: patent US20250361230A1, “LATS Inhibitors and Uses Thereof” (The USA, as Represented by the Secretary, Dept. of Heath …, priority 2022, published 2025)

What was measured:
LATS1 = target: T1, LATS1 (Homo sapiens, UniProt O95835); test: RBC HotSpot kinase assay (33P-ATP, P81 filter-binding), LATS1; format: biochemical; conditions: biochemical kinase inhibition; read-out: LATS1 IC50
T1 sequence (O95835 1-1130): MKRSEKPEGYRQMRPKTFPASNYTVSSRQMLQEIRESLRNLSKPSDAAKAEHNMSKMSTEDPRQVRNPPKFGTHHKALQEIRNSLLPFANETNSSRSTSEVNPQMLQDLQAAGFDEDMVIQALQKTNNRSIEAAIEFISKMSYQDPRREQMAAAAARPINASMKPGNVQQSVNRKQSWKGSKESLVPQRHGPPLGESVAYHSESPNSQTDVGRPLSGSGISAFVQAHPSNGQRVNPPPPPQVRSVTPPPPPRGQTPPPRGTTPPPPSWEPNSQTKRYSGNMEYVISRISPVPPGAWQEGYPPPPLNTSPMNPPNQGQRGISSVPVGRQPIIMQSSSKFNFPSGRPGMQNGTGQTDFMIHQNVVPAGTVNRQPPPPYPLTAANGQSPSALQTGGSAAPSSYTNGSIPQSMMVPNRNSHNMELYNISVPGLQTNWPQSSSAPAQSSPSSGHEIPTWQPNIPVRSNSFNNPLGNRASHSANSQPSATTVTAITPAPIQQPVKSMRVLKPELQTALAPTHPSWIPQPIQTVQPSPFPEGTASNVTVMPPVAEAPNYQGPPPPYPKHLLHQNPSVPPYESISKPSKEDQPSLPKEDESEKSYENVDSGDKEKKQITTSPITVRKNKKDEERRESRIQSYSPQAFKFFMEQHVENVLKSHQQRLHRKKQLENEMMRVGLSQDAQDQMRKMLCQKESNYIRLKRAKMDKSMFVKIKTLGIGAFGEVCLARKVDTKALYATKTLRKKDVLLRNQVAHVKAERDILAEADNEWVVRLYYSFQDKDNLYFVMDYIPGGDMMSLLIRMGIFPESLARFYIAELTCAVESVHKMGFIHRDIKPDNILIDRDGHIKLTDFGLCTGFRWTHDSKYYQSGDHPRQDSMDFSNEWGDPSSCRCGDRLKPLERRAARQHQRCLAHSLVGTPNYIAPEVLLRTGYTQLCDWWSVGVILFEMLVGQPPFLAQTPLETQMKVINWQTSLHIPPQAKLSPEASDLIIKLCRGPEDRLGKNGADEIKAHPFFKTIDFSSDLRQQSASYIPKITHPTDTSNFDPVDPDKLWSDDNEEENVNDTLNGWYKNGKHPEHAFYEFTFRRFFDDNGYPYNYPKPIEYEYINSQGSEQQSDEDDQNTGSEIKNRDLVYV
Outline: (§1)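 Substrate in fresh buffer receives cofactors, then kinase, then compound in DMSO for a 20 min room-temperature preincubation. Reactions start with 33P-ATP and run 2 h; phosphorylation is read by P81 filter binding, and IC50 comes from a 10-point curve.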

LATS2 = target: T2, LATS2 (Homo sapiens, UniProt Q9NRM7); test: RBC HotSpot kinase assay (33P-ATP, P81 filter-binding), LATS2; format: biochemical; conditions: biochemical kinase inhibition; read-out: LATS2 IC50
T2 sequence (Q9NRM7 1-1088): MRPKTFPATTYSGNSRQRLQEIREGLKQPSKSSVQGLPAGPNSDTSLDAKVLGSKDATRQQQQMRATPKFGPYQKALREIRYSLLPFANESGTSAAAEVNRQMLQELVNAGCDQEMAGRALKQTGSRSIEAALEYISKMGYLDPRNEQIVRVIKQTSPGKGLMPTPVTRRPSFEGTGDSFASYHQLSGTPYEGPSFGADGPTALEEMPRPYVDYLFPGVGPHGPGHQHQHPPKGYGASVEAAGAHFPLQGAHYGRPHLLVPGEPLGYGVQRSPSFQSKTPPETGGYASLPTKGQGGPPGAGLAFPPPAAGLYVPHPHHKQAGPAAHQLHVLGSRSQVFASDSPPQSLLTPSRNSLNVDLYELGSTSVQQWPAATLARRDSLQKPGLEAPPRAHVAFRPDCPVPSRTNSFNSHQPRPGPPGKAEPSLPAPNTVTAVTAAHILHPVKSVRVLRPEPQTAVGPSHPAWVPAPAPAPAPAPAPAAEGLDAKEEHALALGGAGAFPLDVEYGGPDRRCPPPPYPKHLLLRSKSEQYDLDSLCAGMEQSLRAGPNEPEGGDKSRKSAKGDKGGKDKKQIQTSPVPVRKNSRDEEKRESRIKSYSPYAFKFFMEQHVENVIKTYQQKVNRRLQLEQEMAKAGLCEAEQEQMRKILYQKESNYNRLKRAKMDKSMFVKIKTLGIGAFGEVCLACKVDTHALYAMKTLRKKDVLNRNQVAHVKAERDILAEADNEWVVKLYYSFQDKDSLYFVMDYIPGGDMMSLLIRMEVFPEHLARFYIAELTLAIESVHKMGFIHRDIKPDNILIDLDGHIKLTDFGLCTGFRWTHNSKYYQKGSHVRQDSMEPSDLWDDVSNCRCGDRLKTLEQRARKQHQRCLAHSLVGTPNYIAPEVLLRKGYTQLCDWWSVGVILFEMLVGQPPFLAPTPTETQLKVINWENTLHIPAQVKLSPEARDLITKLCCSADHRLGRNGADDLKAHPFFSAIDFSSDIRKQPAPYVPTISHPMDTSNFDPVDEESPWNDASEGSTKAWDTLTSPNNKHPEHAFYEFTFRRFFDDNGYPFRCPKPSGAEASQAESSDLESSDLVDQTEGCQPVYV
Outline: as §1

IC50 (LATS1): 5.6 nM | IC50 (LATS2): 2.6 nM
SMILES: Cc1cc(-c2ccnc3[nH]cc(C#N)c23)ccc1[C@@]1(O)[C@H](C)CN(C2CCS(=O)(=O)CC2)C[C@@H]1C [Compound 2003, 4-(4-((3S,4s,5R)-1-(1,1-dioxidotetrahydro-2H-thiopyran-4-yl)-4-hydroxy-3,5-dimethylpiperidin-4-yl)-3-methylphenyl)-1H-pyrrolo[2,3-b]pyridine-3-carbonitrile]
